pIC50: −log10 of the molar value. Where a SMILES comes first, the peptide text is derived from it. Bridges are numbered along the chain shown (N, C = ends). [ ]: non-standard residue; d: D form. The star is where a group is joined. ξ: configuration not given here. Phe(3-CF3) = N[C@@H](Cc1cccc(C(F)(F)F)c1)C(=O)O; Ala(morpholin-4-yl) = N[C@@H](CN1CCOCC1)C(=O)O; Phe(4-COOH) = N[C@@H](Cc1ccc(C(=O)O)cc1)C(=O)O; Trp(7-Me) = Cc1cccc2c(C[C@H](N)C(=O)O)c[nH]c12; Bip = N[C@@H](Cc1ccc(-c2ccccc2)cc1)C(=O)O; Phe(3-Me) = Cc1cccc(C[C@H](N)C(=O)O)c1; Phe(2-F) = N[C@@H](Cc1ccccc1F)C(=O)O; 4Pal = N[C@@H](Cc1ccncc1)C(=O)O; 2Thi = N[C@@H](Cc1cccs1)C(=O)O; Cha = N[C@@H](CC1CCCCC1)C(=O)O; Cit = NC(=O)NCCC[C@H](N)C(=O)O; Ile(3ξ) = CCC(C)[C@H](N)C(=O)O; ξIle = CC[C@H](C)C(N)C(=O)O; Carboxymethyl = O=C(O)C*; Orn = NCCC[C@H](N)C(=O)O; Dab = NCC[C@H](N)C(=O)O; Dap = NC[C@H](N)C(=O)O
target: T1, human PD-1 / PD-L1-Ig binding on Jurkat cell line over-expressing human PD-1 (Jurkat-PD-1) (Homo sapiens, UniProt Q15116); test: Jurkat-PD-1 Cell Binding High-Content Screening Assay (CBA); type: cell-based; conditions: Jurkat-PD-1 cells, PE-labeled PD-L1-Ig 20 nM final; read-out: Jurkat HPD1_PDL1 IC50
T1 construct: expressed in transfected cells; host or cells: Jurkat
T1 sequence (Q15116 25-288): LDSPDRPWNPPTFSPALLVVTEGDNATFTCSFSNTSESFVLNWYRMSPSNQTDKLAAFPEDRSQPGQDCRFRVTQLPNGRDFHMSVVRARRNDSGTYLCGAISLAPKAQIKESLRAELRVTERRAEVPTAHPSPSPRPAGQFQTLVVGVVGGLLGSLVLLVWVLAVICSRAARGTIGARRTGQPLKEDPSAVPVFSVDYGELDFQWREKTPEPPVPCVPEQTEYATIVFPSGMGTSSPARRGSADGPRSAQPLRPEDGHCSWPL
Outline: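 Read-out: high-content imaging of PE-tagged PD-L1-Ig bound to Jurkat cells overexpressing human PD-1, after fixation with 4% paraformaldehyde and Hoechst 33342 nuclear staining. Ligand was used at 20 nM final for 1 hour, after a 2 h compound exposure at 37° C in serum-containing DMEM.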

| SMILES | pIC50 |
| --- | --- |
| CC(C)C[C@H]1NC(=O)[C@H](CCCN)NC(=O)[C@H](CCN)NC(=O)[C@H](Cc2ccc(-c3ccccc3)cc2)NC(=O)[C@H](C(C)C)NC(=O)[C@H](Cc2c[nH]c3ccccc23)NC(=O)[C@H](CC(=O)O)NC(=O)[C@H](Cc2ccncc2)NC(=O)[C@H](CN)NC(=O)CSC[C@@H](C(=O)N[C@@H](C)C(N)=O)NC(=O)[C@H]([C@@H](C)O)NC(=O)[C@H](C(C)C)NC(=O)[C@H](CC2CCCCC2)NC(=O)[C@H](CCN)NC1=O [Compound 1387] | 7.60 |
| CC(C)C[C@@H]1NC(=O)[C@H](CCN)NC(=O)[C@@H](CC(C)C)NC(=O)[C@@H](CC(=O)O)NC(=O)[C@H](C(C)C)NC(=O)[C@H](Cc2ccc(-c3ccccc3)cc2)NC(=O)[C@H](C(C)C)NC(=O)[C@H](Cc2c[nH]c3ccccc23)NC(=O)[C@H](CC(=O)O)NC(=O)[C@H](Cc2ccc(O)cc2)NC(=O)[C@H](CC(N)=O)NC(=O)CSC[C@@H](C(=O)N[C@@H](C)C(N)=O)NC(=O)[C@H]([C@@H](C)O)NC(=O)[C@H](C(C)C)NC1=O [Compound 1021] ({CH2CO}-NYDWV[Bip]V[dD][dL][Dab]LVTCA-NH2; thioether N-14) | 7.57 |
| Cc1cccc(C[C@@H]2NC(=O)[C@H](CC(=O)O)NC(=O)[C@H](Cc3ccncc3)NC(=O)[C@H](CN)NC(=O)CSC[C@@H](C(=O)N[C@@H](C)C(N)=O)NC(=O)[C@H]([C@@H](C)O)NC(=O)[C@H](C(C)C)NC(=O)[C@H](CC(C)C)NC(=O)[C@H](CCN)NC(=O)[C@@H](CC(C)C)NC(=O)[C@H](CCCN)NC(=O)[C@H](CCCNC(N)=O)NC(=O)[C@H](Cc3ccc(-c4ccccc4)cc3)NC(=O)[C@H](C(C)C)NC2=O)c1 [Compound 1239] ({CH2CO}-[Dap][4Pal]D[Phe(3-Me)]V[Bip][Cit][Orn][dL][Dab]LVTCA-NH2; thioether N-14) | 7.84 |
| Cc1cccc(C[C@@H]2NC(=O)[C@H](CC(=O)O)NC(=O)[C@H](Cc3ccc(C(=O)O)cc3)NC(=O)[C@H](Cc3ccc(OCC(=O)O)cc3)NC(=O)CSC[C@@H](C(=O)N[C@@H](C)C(N)=O)NC(=O)[C@H]([C@@H](C)O)NC(=O)[C@H](C(C)C)NC(=O)[C@H](CC(C)C)NC(=O)[C@H](CCN)NC(=O)[C@@H](CC(C)C)NC(=O)[C@H](CCCN)NC(=O)[C@H](CCCNC(N)=O)NC(=O)[C@H](Cc3ccc(-c4ccccc4)cc3)NC(=O)[C@H](C(C)C)NC2=O)c1 [Compound 1251] ({CH2CO}-Y(Carboxymethyl)[Phe(4-COOH)]D[Phe(3-Me)]V[Bip][Cit][Orn][dL][Dab]LVTCA-NH2; thioether N-14) | 8.10 |
| Cc1cccc(C[C@@H]2NC(=O)[C@H](CC(=O)O)NC(=O)[C@H](Cc3ccc(OCC(=O)O)cc3)NC(=O)[C@H](Cc3ccncc3)NC(=O)CSC[C@@H](C(=O)N[C@@H](C)C(N)=O)NC(=O)[C@H]([C@@H](C)O)NC(=O)[C@H](C(C)C)NC(=O)[C@H](CC(C)C)NC(=O)[C@H](CCN)NC(=O)[C@@H](CC(C)C)NC(=O)[C@H](CCCN)NC(=O)[C@H](CCCNC(N)=O)NC(=O)[C@H](Cc3ccc(-c4ccccc4)cc3)NC(=O)[C@H](C(C)C)NC2=O)c1 [Compound 1184] ({CH2CO}-[4Pal]Y(Carboxymethyl)D[Phe(3-Me)]V[Bip][Cit][Orn][dL][Dab]LVTCA-NH2; thioether N-14) | 8.21 |
| CC[C@H](C)C1NC(=O)[C@H](Cc2ccc(-c3ccccc3)cc2)NC(=O)[C@H](C(C)C)NC(=O)[C@H](Cc2c[nH]c3ccccc23)NC(=O)[C@H](CC(N)=O)NC(=O)[C@H](Cc2ccc(O)cc2)NC(=O)[C@H](CN)NC(=O)CSC[C@@H](C(=O)N[C@@H](C)C(N)=O)NC(=O)[C@H]([C@@H](C)O)NC(=O)[C@H](C(C)C)NC(=O)[C@H](CC(C)C)NC(=O)[C@H](CCN)NC(=O)[C@@H](CC(C)C)NC(=O)[C@H](CCN)NC1=O (stereo partly drawn) [Compound 1090] ({CH2CO}-[Dap]YNWV[Bip][ξIle][Dab][dL][Dab]LVTCA-NH2; thioether N-14) | 7.55 |

Further lines, results first:

| pIC50 | SMILES |
| --- | --- |
| 7.46 | CC(C)C[C@H]1NC(=O)[C@H](CCCN)NC(=O)[C@H](CCC(=O)O)NC(=O)[C@H](Cc2ccc(-c3ccccc3)cc2)NC(=O)[C@H](C(C)C)NC(=O)[C@H](Cc2ccccc2F)NC(=O)[C@H](CC(=O)O)NC(=O)[C@H](Cc2ccncc2)NC(=O)[C@H](CC(N)=O)NC(=O)CSC[C@@H](C(=O)N[C@@H](C)C(N)=O)NC(=O)[C@H]([C@@H](C)O)NC(=O)[C@H](C(C)C)NC(=O)[C@H](CC2CCCCC2)NC(=O)[C@H](CCN)NC1=O [Compound 2207] ({CH2CO}-N[4Pal]D[Phe(2-F)]V[Bip]E[Orn][dL][Dab][Cha]VTCA-NH2; thioether N-14) |
| 7.49 | CCC(C)[C@@H]1NC(=O)[C@H](Cc2ccc(-c3ccccc3)cc2)NC(=O)[C@H](C(C)C)NC(=O)[C@H](Cc2cccc(C)c2)NC(=O)[C@H](CC(=O)O)NC(=O)[C@H](Cc2ccc(C(=O)O)cc2)NC(=O)[C@H](Cc2ccncc2)NC(=O)CSC[C@@H](C(N)=O)NC(=O)[C@H](CCC(=O)O)NC(=O)[C@H](C(C)C)NC(=O)[C@H](CC2CCCCC2)NC(=O)[C@H](CCN)NC(=O)[C@@H](CC(C)C)NC(=O)[C@H](CCCN)NC1=O (stereo partly drawn) [Compound 2277] ({CH2CO}-[4Pal][Phe(4-COOH)]D[Phe(3-Me)]V[Bip][Ile(3ξ)][Orn][dL][Dab][Cha]VEC-NH2; thioether N-14) |
| 6.48 | Cc1cccc2c(C[C@@H]3NC(=O)[C@H](CC(=O)O)NC(=O)[C@H](Cc4ccc(OCC(=O)O)cc4)NC(=O)[C@H](CN)NC(=O)CSC[C@@H](C(=O)N[C@@H](CCN)C(N)=O)NC(=O)[C@H]([C@@H](C)O)NC(=O)[C@H](C(C)C)NC(=O)[C@H](CC4CCCCC4)NC(=O)[C@H](CCN)NC(=O)[C@@H](CC(C)C)NC(=O)[C@H](CCCN)NC(=O)[C@H](C(C)C)NC(=O)[C@H](Cc4ccc(-c5ccccc5)cc4)NC(=O)[C@H](C(C)C)NC3=O)c[nH]c12 [Compound 2018] ({CH2CO}-[Dap]Y(Carboxymethyl)D[Trp(7-Me)]V[Bip]V[Orn][dL][Dab][Cha]VTC[Dab]-NH2; thioether N-14) |
| 7.75 | CC(C)C[C@H]1NC(=O)[C@H](CCCN)NC(=O)[C@H](C(C)C)NC(=O)[C@H](Cc2ccc(-c3ccccc3)cc2)NC(=O)[C@H](C(C)C)NC(=O)[C@H](Cc2c[nH]c3ccccc23)NC(=O)[C@H](CC(=O)O)NC(=O)[C@H](Cc2ccc(OCC(=O)O)cc2)NC(=O)[C@H](CN)NC(=O)CSC[C@@H](C(=O)N[C@@H](C)C(N)=O)NC(=O)[C@H]([C@@H](C)O)NC(=O)[C@H](C(C)C)NC(=O)[C@H](CC2CCCCC2)NC(=O)[C@H](CC(=O)O)NC1=O [Compound 1521] ({CH2CO}-[Dap]Y(Carboxymethyl)DWV[Bip]V[Orn][dL]D[Cha]VTCA-NH2; thioether N-14) |
| 8.72 | CC(C)C[C@H]1NC(=O)[C@H](CCCN)NC(=O)[C@H](Cc2ccc(C(=O)O)cc2)NC(=O)[C@H](Cc2ccc(-c3ccccc3)cc2)NC(=O)[C@H](Cc2cccs2)NC(=O)[C@H](Cc2cccc(C(F)(F)F)c2)NC(=O)[C@H](CC(=O)O)NC(=O)[C@H](Cc2ccc(C(=O)O)cc2)NC(=O)[C@H](CN2CCOCC2)NC(=O)CSC[C@@H](C(=O)N[C@@H](CCN)C(N)=O)NC(=O)[C@H](CCC(=O)O)NC(=O)[C@H](C(C)C)NC(=O)[C@H](CC2CCCCC2)NC(=O)[C@H](CCN)NC1=O [Example 2749] ({CH2CO}-[Ala(morpholin-4-yl)][Phe(4-COOH)]D[Phe(3-CF3)][2Thi][Bip][Phe(4-COOH)][Orn][dL][Dab][Cha]VEC[Dab]-NH2; thioether N-14) |
